As a reminder, the IC50 is the concentration that gives 50% inhibition.

Some results are limits rather than exact numbers.

The test system of one test is cardiac cells. In words: Oxidative necrosis of cardiac cells induced by hypoxanthine/xanthine oxidase. In kind it is cell-based, new-born rats. Particulars: for activity at 10 µM / activity at 1 µM / activity at 0.1 µM: control = 100, means ± sem, read-out: index of necrosis of cardiac cells; for activity at 0.1 µM: 10^-7 M. On the procedure: Cardiac cells of new-born rats are used between the 5th and 6th days after placing in a culture. Oxidative necrosis is induced by the enzymatic system hypoxanthine (HX, 1 mM) and xanthine oxidase (XO, 10 mU/ml), which produces free radicals. The necrosis is evaluated 4 hours after the addition of XO/HX by the spectrophotometric measurement of the cytosolic α-hydroxybutyrate dehydrogenase (α-HBDH) activity liberated in the supernatant. Two reference molecules (probucol, vitamin E) and 3 molecules representative of the present invention (corresponding to Examples 1, 3 and 4) were tested. The cells are treated with the molecules 16 hours and 1 hour before the beginning of the experiment after renewing the medium. At the beginning of the experiment, the treatment is carried out one last time.
Table B lists the indices of the necrosis of cardiac cells induced by the system hypoxanthine/xanthine oxidase on its own or in the presence of increasing concentrations of the compounds of the invention or of the reference compounds: probucol and vitamin E.
The necrosis index 100 corresponds to a liberation of 43.6±1.0% in 4 hours of the cytosolic content of α-HBDH in the supernatant.
The results are expressed in the form of means ± sem (4≤n≤5, 3 repetitions per experiment).

For test [1], the system named is human LDLs. The test is described as follows: Modification of the LDLs by copper sulphate (MDA formation). In kind it is biochemical. Particulars: for IC50: oxidation by copper sulphate, 24 hours, read-out: IC50 Cu^2+ (inhibition of lipid peroxidation of human LDLs, MDA production). On the procedure: Human LDLs are incubated for 24 hours in the presence of copper sulphate (5×10^-5 M or 5×10^-6 M) and in the absence or presence of the test compounds (10^-7 M to 10^-4 M).
After incubation, the peroxidation of the LDLs is evaluated by electrophoresis on agar gel and by the formation of one of the products of lipid peroxidation: malonic dialdehyde (MDA) (Parthasarathy S., Young S. G., Witztum J. L., Pittman R. C., and Steinberg D.; J. Clin. Invest. 77, 641-644, 1986).
The activity of the test compounds is evaluated by calculating the concentrations that reduce the production of MDA by 50% (IC50) compared with control experiments carried out in the absence of test compound.
(§1) Table A lists the IC50 values, which indicate the capacity to inhibit the lipid peroxidation of human LDLs, obtained with a sample of the compounds of the invention and of the reference compounds probucol and vitamin E, in two tests causing the development of the oxidation of the LDLs: by copper sulphate (Cu^2+) or by endothelial cells (EC).

In test [2] the test system is human LDLs. The test is described as follows: Modification of the LDLs by endothelial cells (MDA formation). The class given is cell-based. The method, then: Human LDLs are incubated for 24 hours in the presence of rabbit aorta endothelial cells (line RECL B4 supplied by Professor Steinberg, USA) and in the absence or presence of the test compounds (10^-7 M to 10^-4 M).
After incubation, the peroxidation of the LDLs is evaluated by electrophoresis on agar gel and by the formation of one of the products of lipid peroxidation: malonic dialdehyde (MDA) (Steinbrecher U.P., Parthasarathy S, Leake D. S., Witztum J. L., and Steinberg D., Proc. Nat. Acad. Sci. USA 81. 3883-3887, 1984).
The activity of the test compounds is evaluated by calculating the concentrations that reduce the production of MDA by 50% (IC50) compared with the control experiments carried out in the absence of test compound.
as §1

For test [3], the system named is LDLs of the Watanabe rabbits. The test is described as follows: Ex vivo copper sulphate oxidation of LDLs from orally treated Watanabe rabbits (MDA production). The class given is in vivo. The following applies: for MDA production: 3 days. The method, then:
Watanabe rabbits ([…] hyperlipidaemic rabbits) are used that range in weight from 3 kg to 5 kg. The animals are treated orally with the carrier of the test compounds (control group) or with the test compounds at doses of 10, 50 and 250 mg/kg/day for 3 days.
When the treatment is complete, the LDLs of the animals are prepared by ultracentrifugation and subjected to oxidation with copper sulphate (5×10^-6 M). The lipid peroxidation of the LDLs is evaluated after various periods of incubation with copper sulphate (from 2 to 24 hours) by measuring the formation of MDA.
Table C lists the MDA production values according to the incubation period with copper sulphate of those LDLs originating from the control animals and those originating from the animals treated with the compounds of Examples 1, 3 and 31 at different doses or with probucol.

The mark [4] stands for this setting: Rattus norvegicus, 4 h, 10^-5 M.
The mark [5] stands for this setting: Rattus norvegicus, 4 h, 10^-6 M.
Where [6] appears, read: 250 mg/kg/day oral, 2 hours incubation with copper sulphate.
Where [7] appears, read: 250 mg/kg/day oral, 4 hours incubation with copper sulphate.
[8] abbreviates: 250 mg/kg/day oral, 6 hours incubation with copper sulphate.
Setting [9] is: 250 mg/kg/day oral, 8 hours incubation with copper sulphate.
Where [10] appears, read: 250 mg/kg/day oral, 24 hours incubation with copper sulphate.
The mark [11] stands for this setting: oral, peroxidation induced by copper sulphate.

`CC(C)(C)c1cc(SCCCN2CCC3(CC2)CNC(=O)O3)cc(C(C)(C)C)c1O` [Example 3]: the “effect on oxidative necrosis of cardiac cells compared with reference compounds” value in the test with cardiac cells (10^-6 M and 10^-5 M) is “distinctly superior to the reference compounds”. In addition, the activity at 10 µM with cardiac cells (setting [4]) amounted to 4.2 ± 2.7%. For the same compound, the activity at 1 µM in the test on cardiac cells (setting [5]) worked out at 12 ± 4.4%. The activity at 0.1 µM in the test with cardiac cells (Rattus norvegicus, 4 h) came out at 60.6 ± 17.1%. The inhibition at 10 µM in the test on cardiac cells (Rattus norvegicus, Cardiomyocyte, 4 h, 10^-5 M, read-out: reduction of oxidative necrosis of cardiomyocytes) is more than 95%. For the same compound, in the test with cardiac cells (Rattus norvegicus, Cardiomyocyte, 4 h, 10^-6 M, read-out: reduction of oxidative necrosis of cardiomyocytes), the inhibition at 1 µM was more than 80%. The “ability to protect human LDLs compared with probucol or vitamin E, copper sulphate” value in the test with human LDLs [1] (modifications induced by copper sulphate) is “greater ability”. Besides, the IC50 in the test on human LDLs [1] came to 300 nM. Also, the “ability to protect human LDLs compared with probucol or vitamin E, endothelial cells” value in the test on human LDLs [2] (modifications induced by endothelial cells) is on record as “greater ability”. Besides, the “times more powerful than probucol (endothelial cells)” value in the test on human LDLs [2] (test using endothelial cells) was determined as 100 times. Moreover, the MDA production in test [3] (10 mg/kg/day oral, 2 hours incubation with copper sulphate) turned out to be 1.27 nM/mg proteins; in test [3] (10 mg/kg/day oral, 4 hours incubation with copper sulphate), 0.27 nM/mg proteins; in test [3] (10 mg/kg/day oral, 6 hours incubation with copper sulphate), 3.29 nM/mg proteins; in test [3] (10 mg/kg/day oral, 8 hours incubation with copper sulphate), 6.85 nM/mg proteins; in test [3] (10 mg/kg/day oral, 24 hours incubation with copper sulphate) it was 22.78 nM/mg proteins; in test [3] (50 mg/kg/day oral, 2 hours incubation with copper sulphate), 0.16 nM/mg proteins. Also, the MDA production in test [3] (50 mg/kg/day oral, 4 hours incubation with copper sulphate) was 0 nM/mg proteins; in test [3] (50 mg/kg/day oral, 6 hours incubation with copper sulphate), 1.06 nM/mg proteins; in test [3] (50 mg/kg/day oral, 8 hours incubation with copper sulphate) it was 1.44 nM/mg proteins; in test [3] (50 mg/kg/day oral, 24 hours incubation with copper sulphate) it was 7.30 nM/mg proteins; in test [3] (setting [6]), 0.66 nM/mg proteins; in test [3] (setting [7]) it was 0 nM/mg proteins. Also, the MDA production in test [3] (setting [8]) was determined as 0 nM/mg proteins; in test [3] (setting [9]), 0.69 nM/mg proteins; in test [3] (setting [10]) it was 0.91 nM/mg proteins. The “dose from which particularly effective” value in test [3] (setting [11]) is not below 10 mg/kg/day. The “dose from which peroxidation of the LDLs is inhibited” value in test [3] (setting [11]) is not below 50 mg/kg/day.
In the case of `CC(C)(Sc1cc(C(C)(C)C)c(O)c(C(C)(C)C)c1)Sc1cc(C(C)(C)C)c(O)c(C(C)(C)C)c1` [probucol, reference compound], the activity at 10 µM in the test on cardiac cells (setting [4]) is 26.6 ± 6.3%. The activity at 1 µM in the test with cardiac cells (setting [5]) turned out to be 68.8 ± 3.9%. Also, the activity at 0.1 µM in the test with cardiac cells (Rattus norvegicus, 4 h) came out at 103 ± 2%. Also, the IC50 with human LDLs [1] was 3000 nM; in the test on human LDLs [2] (oxidation by rabbit aorta endothelial cells, 24 hours, read-out: IC50 EC (inhibition of lipid peroxidation of human LDLs, MDA production)), 4 µM. Moreover, the MDA production in test [3] (setting [6]) is 1.85 nM/mg proteins; in test [3] (setting [7]) it was 3.50 nM/mg proteins; in test [3] (setting [8]), 4.90 nM/mg proteins; in test [3] (setting [9]), 12.26 nM/mg proteins; in test [3] (setting [10]) it was 23.81 nM/mg proteins. Moreover, in test [3] (oral treatment of Watanabe rabbits), the “retardation of peroxidation of the LDLs compared with control animals” value is listed as “approximately 2 hours”.

Source of the values: US5206247A, “Spiro(4.5.)decane compounds” (Adir Et Compagnie, priority 1990, dated 1993).
